{
  "source": "patent US20170368054A1",
  "about": "“Treatment of Glaucoma Using Laquinimod” (Teva Pharmaceutical Industries, Ltd., priority 2013, published 2017)",
  "key": {"[1]": {"tested_on": "Th1 (T helper 1 cell) to Th2 (T helper 2 cell) shift", "conditions": "animal studies (Yang, 2004; Brück, 2011); cited from earlier work"}, "[2]": {"tested_on": "genes related to antigen presentation and corresponding inflammatory pathways", "conditions": "mainly via the NFkB pathway (Gurevich, 2010); cited from earlier work"}, "[3]": {"tested_on": "rat model of chronic ocular hypertension (OHT)/glaucoma", "assay": "Intraocular pressure (IOP) measurement, Tono-Pen Vet tonometer, rat OHT model", "type": "in vivo, Brown Norway rats (Rattus norvegicus)", "conditions": "average of 5 weekly post-HSI measurements, groups matched for Mean ΔIOP", "method": "For each IOP measurement time-point following the 2nd HSI, the IOP elevation was calculated as the difference between the IOP in the left eye with OHT and that in the non-OHT right eye (ΔIOP). The ΔIOP for the 5 weekly post-HSI IOP measurements were averaged and constituted the Mean ΔIOP for each animal. […] Other animals were removed from the study. Baseline IOP measurements were taken before the initial dose administration. After application of topical anesthesia (0.5% Proparacaine HCl Ophthalmic Solution), IOP was measured on conscious rats on both eyes using a Tono-Pen Vet tonometer (Reichert, Inc.; Depew, N.Y.). Ten (10) IOP readings are recorded from each eye and averaged. IOP measurements were taken around the same time (e.g., between 10 a.m. and 2 p.m.) across measurement time-points to minimize the circadian variability of IOP. IOP measurements were taken once weekly starting one week after the second HSI until euthanasia (a total of 5 measurements). After application of topical anesthesia (0.5% Proparacaine HCl Ophthalmic Solution), IOP was measured on conscious rats on both eyes using a Tono-Pen Vet tonometer (Reichert, Inc.; Depew, N.Y.). For each time-point, ten (10) IOP readings were recorded from each eye and averaged. IOP measurements were taken around the same time (e.g., between 10 a.m. and 2 p.m.) across measurement time-points to minimize the circadian variability of IOP. The IOP measurements were evaluated as follows: For each time-point following the HSI, the IOP elevation was calculated as the difference between the level in the left eye with OHT and that in the normal right eye (ΔIOP). The ΔIOP of the 5-weekly post-HSI IOP measurements were averaged and constitute the Mean ΔIOP for each animal. For each group, ten (10) animals with a sustained IOP elevation in the OHT eye were selected from a larger pool and groups are matched for the Mean ΔIOP. Other animals were removed from the study and euthanized. […] For each time-point following the HSI, the IOP elevation was calculated as the difference between the level in the left eye with OHT and that in the normal right eye (ΔIOP). The ΔIOP of the 5-weekly post-HSI IOP measurements were averaged and constitute the Mean ΔIOP for each animal. For each group, ten (10) animals with a sustained IOP elevation in the OHT eye were selected from a larger pool and groups were matched for the Mean ΔIOP. Other animals were removed from the study and euthanized."}, "[4]": {"tested_on": "optic nerve", "assay": "Optic nerve injury grading (toluidine blue cross-sections, Grade 1-5) in rat OHT model", "type": "in vivo, Brown Norway rats (Rattus norvegicus)", "conditions": "for Mean ON Injury Grade (Mean±SD), Non-OHT (control) eyes / Mean ON Injury Grade (Mean±SD), OHT optic nerves: grade scale 1-5; for Mean ON Injury Grade (Mean±SD), OHT optic nerves: vehicle 3.0±1.6", "method": "Animals were euthanized 5 weeks after the 2nd HSI. The retinas were flat-mounted, slide IDs were masked and 8 regions per retina were imaged using a confocal microscope. RGC at these regions were counted using the Image J software. After the optic nerves were extracted, they were plastic-embedded, sectioned and stained with Toluidine Blue at Schepens Eye Research Institute, Boston, Mass.. The injury in the optic nerves was evaluated and graded by microscopic examination in a masked fashion. The eyes were immediately enucleated with the optic nerve attached. An approximately 2.0 mm piece of the ON proximal to the globe is separated and labeled with tissue mark to indicate the orientation of the nerve. The ON piece is placed in Modified Karnovsky's Fixative in 0.1 M Na cacodylate buffer and kept at 4±2° C. overnight. The next day ON piece was washed at least three times for at least 10 minutes each in 0.1 M Na cacodylate buffer and stored in 0.1 M Na cacodylate buffer at 4±2° C. After specimens were transferred to a contracted processing facility, within a week, the optic nerves were processed for plastic embedding: After post-fixation in 2% osmium tetroxide in 0.1 M Na cacodylate buffer for at least 1.5 hours, ONs were dehydrated in graded ethanols, transitioned in propylene oxide and infiltrated with propylene oxide and epon mixtures. One to five (1-5) μm-thick cross-sections were taken via a microtome at the ON end approximately 2.0 mm away from the globe. ON sections were stained with 1% toluidine blue and cover-slipped. The processed specimens were returned. The identification of the ONs were masked prior to injury analysis. The ON cross-sections were analyzed for injury by light microscopy as follows: The damaging effect of the sustained IOP elevation was assessed by qualitative microscopic analysis of the ON cross-sections using a well-established grading system described in Table 9. This method allowed damage analysis of the entire retinal ganglion cell output (the ON) in one section by light microscopy and was more sensitive than counting total axons especially if there is mild nerve damage. […] The extent of injury was then graded by light microscopy based on a pattern of damage observed in rats with elevated IOP. [table] The damaging effect of the sustained IOP elevation was assessed by qualitative microscopic analysis of the ON cross-sections using a well-established grading system described in Table 9. This method allowed damage analysis of the entire retinal ganglion cell output (the ON) in one section by light microscopy and was more sensitive than counting total axons especially if there is mild nerve damage. […] The extent of injury was then graded by light microscopy based on a pattern of damage observed in rats with elevated IOP."}, "[5]": {"conditions": "Group 4, topical 0.25% laquinimod"}},
  "data": [
    {"smiles": "CCN(C(=O)c1c(O)c2c(Cl)cccc2n(C)c1=O)c1ccccc1", "note": "[Laquinimod]", "values": [
      {"measurement": "Th1 to Th2 shift", "setting": "[1]", "result": "causes a Th1"},
      {"measurement": "suppression of genes related to antigen presentation and corresponding inflammatory pathways", "setting": "[2]", "result": "induced suppression"},
      {"measurement": "Mean ΔIOP (OHT minus Non-OHT) (Mean±SD)", "setting": "[3]; Group 1, topical 1% laquinimod", "result": "9.1±2.2", "unit": "mmHg"},
      {"measurement": "Mean ΔIOP (OHT minus Non-OHT) (Mean±SD)", "setting": "[3]; Group 3, topical 4% laquinimod", "result": "9.3±2.7", "unit": "mmHg"},
      {"measurement": "Mean ΔIOP (OHT minus Non-OHT) (Mean±SD)", "setting": "[3]; [5]", "result": "9.2±1.5", "unit": "mmHg"},
      {"measurement": "Mean ΔIOP (OHT minus Non-OHT) (Mean±SD)", "setting": "[3]; Group 5, oral 0.1% laquinimod", "result": "9.1±2.9", "unit": "mmHg"},
      {"measurement": "Mean ON Injury Grade (Mean±SD), Non-OHT (control) eyes", "setting": "[4]; Group 1, topical 1% laquinimod (left eye dosed only)", "result": "1.1±0.1"},
      {"measurement": "Mean ON Injury Grade (Mean±SD), OHT optic nerves", "setting": "[4]; Group 1, topical 1% laquinimod", "result": "2.5±1.3"},
      {"measurement": "Mean ON Injury Grade (Mean±SD), Non-OHT (control) eyes", "setting": "[4]; Group 3, topical 4% laquinimod (left eye dosed only)", "result": "1.2±0.2"},
      {"measurement": "Mean ON Injury Grade (Mean±SD), OHT optic nerves", "setting": "[4]; Group 3, topical 4% laquinimod", "result": "3.0±1.5"},
      {"measurement": "Mean ON Injury Grade (Mean±SD), Non-OHT (control) eyes", "setting": "[4]; Group 4, topical 0.25% laquinimod (left eye dosed only)", "result": "1.2±0.3"},
      {"measurement": "Mean ON Injury Grade (Mean±SD), OHT optic nerves", "setting": "[4]; [5]", "result": "2.8±1.3"},
      {"measurement": "Mean ON Injury Grade (Mean±SD), Non-OHT (control) eyes", "setting": "[4]; Group 5, oral 0.1% laquinimod", "result": "1.2±0.2"},
      {"measurement": "Mean ON Injury Grade (Mean±SD), OHT optic nerves", "setting": "[4]; Group 5, oral 0.1% laquinimod", "result": "2.7±1.5"},
      {"measurement": "Mean ON injury grades, OHT eyes compared to Non-OHT control eyes, two-tailed paired-t tests", "setting": "[4]; all groups, P<0.05", "result": "significantly greater in the OHT eyes"},
      {"measurement": "Mean ON injury grades in OHT and Non-OHT eyes versus groups, Two-Way ANOVA eye versus group interaction", "setting": "[4]; all groups, P=0.98", "result": "groups did not differ"}
    ]}
  ]
}
